# System: not listed separately
# Assay: Experimental distribution coefficient (eLogD)
# Type: physicochemical
# Details: S1 Data
# Experimental: To determine the lipophilicity of the compounds, a methodology based on the retention time of molecules in reverse stationary phase (Ascentis RP-Amide HPLC column) was used. The chromatogram was obtained using LC-MS/MS. Test compounds were prepared at 1.0 μg/mL by adding the stock solution at (1:1) mobile phases A:B + internal standard at 200nM (A: 5% methanol in 10mM ammonium acetate pH 7.4, B: 100% methanol), DMSO concentration must be lower than 2%. […] The retention time (in minutes) of each of the eight standards was plotted against their LogD values. The resulting equation for the calibration curve (y = mx + b) was used to calculate the LogD values for the test compounds.
row,Compound,eLogD
1,CCCn1c(NC(=O)Cc2ccc(F)cc2)nc(c13)cc(C(=O)O)cc3 [Compound 10],1.83

# Same assay, conditions: experimental, pH 7.4
row,Compound,eLogD
1,"CC(C)(C)Cn1c(NC(=O)c2ccn[nH]2)nc2ccc(C#N)cc21 [Compound 34, O=C(Nc1nc(ccc(C#N)c2)c2n1CC(C)(C)C)c3ccn[nH]3]",3.6
2,"CCCn1c(NC(=O)Cc2ccc(F)cc2)nc2ccccc21 [Compound 2, CCCn1c(nc2c1cccc2)NC(Cc3ccc(cc3)F)=O]",4.0

# Same assay, conditions: reverse stationary phase HPLC column (Ascentis RP-Amide), pH 7.4; S1 Data
row,Compound,chromatographic logD
1,"CC(C)(C)Cn1c(NC(=O)c2ccn[nH]2)nc2ccc(C#N)cc21 [Compound 34, O=C(Nc1nc(ccc(C#N)c2)c2n1CC(C)(C)C)c3ccn[nH]3]",3.67
2,"CCCn1c(NC(=O)Cc2ccc(F)cc2)nc2ccccc21 [Compound 2, CCCn1c(nc2c1cccc2)NC(Cc3ccc(cc3)F)=O]",3.97

# System: Leishmania infantum MHOM/MA(BE)/67/ITMAP263 amastigotes
# Assay: L. infantum intracellular amastigote assay in PMM
# Type: cell-based
# Details: CC50 / L. infantum IC50
# Experimental: (§1) Leishmania infantum MHOM/MA(BE)/67/ITMAP263 amastigotes were collected from the spleen of infected donor Golden hamsters. Primary peritoneal mouse macrophages (PMM) were used as host cells for in vitro assays. PMM were collected from Swiss mice after 2 days of peritoneal stimulation with a 2% suspension of potato starch and maintained in RPMI-1640 medium supplemented with 200 mM L-glutamine, antibiotics and 5% FCS at 37°C and 5% CO2. Promastigotes of L. infantum chagasi (luciferase) (MHOM/BR/2005/NLC) obtained as described in Reimão et al.,[27] were grown in M199 medium supplemented with 10% FCS, 0.25% hemin, 32 μg/ml hygromycin and 2% sterile human urine at 25°C and 5% CO2.
# (§2) Stock solutions of the compounds at 20 mM were prepared in 100% DMSO. Next, the compounds were serially pre-diluted in DMSO followed by a further dilution in demineralized water to assure a final in-test DMSO concentration below 1%. The compounds were tested at 4-fold dilutions starting at 64 μM.
# For the antileishmania in vitro assays, 3×10^4 PMM/well were seeded in 96-well plates. After 24h, 5×10^5 amastigotes/well were added and incubated for 2h at 37°C. Next, the compounds in 4-fold serial dilutions were added and the plates were further incubated for 5 days (37°C, 5% CO2). Parasite burdens were assessed using an inverted microscope after Giemsa staining. The results were expressed as percent reduction in parasite burdens compared to negative control wells (100% growth) and IC50 values were determined. Values represent the geometric mean of at least two independent experiments. Miltefosine was used as the positive control in all plates.
row,Compound,SI: selectivity index (CC50 / IC50)
1,"CC(C)(C)Cn1c(NC(=O)c2ccn[nH]2)nc2ccc(C#N)cc21 [Compound 34, O=C(Nc1nc(ccc(C#N)c2)c2n1CC(C)(C)C)c3ccn[nH]3]",1
2,CCCn1c(NC(=O)Cc2ccc(F)cc2)nc(c13)cc(C(=O)O)cc3 [Compound 10],1
3,"CCCn1c(NC(=O)Cc2ccc(F)cc2)nc2ccccc21 [Compound 2, CCCn1c(nc2c1cccc2)NC(Cc3ccc(cc3)F)=O]",2

# Same assay, conditions: Leishmania infantum, 120 h, intracellular amastigotes in PMM, 5 days; read-out: L. infantum IC50
row,Compound,IC50
1,"CC(C)(C)Cn1c(NC(=O)c2ccn[nH]2)nc2ccc(C#N)cc21 [Compound 34, O=C(Nc1nc(ccc(C#N)c2)c2n1CC(C)(C)C)c3ccn[nH]3]",38 µM
2,"CCCn1c(NC(=O)Cc2ccc(F)cc2)nc2ccccc21 [Compound 2, CCCn1c(nc2c1cccc2)NC(Cc3ccc(cc3)F)=O]",15 µM

# Same assay, conditions: Leishmania infantum, S1 Data; read-out: L. infantum IC50
row,Compound,IC50
1,"CC(C)(C)Cn1c(NC(=O)c2ccn[nH]2)nc2ccc(C#N)cc21 [Compound 34, O=C(Nc1nc(ccc(C#N)c2)c2n1CC(C)(C)C)c3ccn[nH]3]",38.3 µM
2,"CCCn1c(NC(=O)Cc2ccc(F)cc2)nc2ccccc21 [Compound 2, CCCn1c(nc2c1cccc2)NC(Cc3ccc(cc3)F)=O]",14.8 µM

# Same assay, conditions: S1 Data; read-out: L. infantum IC50
row,Compound,IC50
1,CCCn1c(NC(=O)Cc2ccc(F)cc2)nc(c13)cc(C(=O)O)cc3 [Compound 10],> 64 µM

# Same assay, conditions: intracellular amastigotes in PMM, 5 days
row,Compound,L. infantum IC50
1,CCCn1c(NC(=O)Cc2ccc(F)cc2)nc(c13)cc(C(=O)O)cc3 [Compound 10],inactive

# System: not listed separately
# Assay: MRC-5 cytotoxicity
# Type: cell-based
# Details: human, MRC-5 cells; S1 Data
row,Compound,CC50
1,"CC(C)(C)Cn1c(NC(=O)c2ccn[nH]2)nc2ccc(C#N)cc21 [Compound 34, O=C(Nc1nc(ccc(C#N)c2)c2n1CC(C)(C)C)c3ccn[nH]3]",> 64 µM
2,"CCCn1c(NC(=O)Cc2ccc(F)cc2)nc2ccccc21 [Compound 2, CCCn1c(nc2c1cccc2)NC(Cc3ccc(cc3)F)=O]",> 64 µM

# System: MRC-5 cells
# Assay: MRC-5 cytotoxicity
# Type: cell-based
# Details: S1 Data
row,Compound,CC50
1,CCCn1c(NC(=O)Cc2ccc(F)cc2)nc(c13)cc(C(=O)O)cc3 [Compound 10],> 64 µM

# System: not listed separately
# Assay: Parallel artificial membrane permeability assay (PAMPA)
# Type: in vitro ADME
# Details: PAMPA, S1 Data; read-out: PAMPA Pe
# Experimental: To determine the passive permeability of the compounds, a 96-well plate containing membranes pre-coated with lipids (Corning Gentest # 353015) was used. The solutions of the compounds were prepared by diluting the stock solutions (10mM) in phosphate buffered saline (PBS) pH 6.5 at a final concentration of 10μM. The solutions diluted in PBS pH 6.5 were then added to the donor portion of the plate (300 μl/well), while PBS pH 7.4 (200 μl/well) was added to the acceptor portion. The two portions of the plate were then coupled, and the system was incubated for 5 h at 37°C. At the end of the incubation, samples were collected from the donor and acceptor plates, and then added to plates containing quench solution (10% water and 90% methanol: acetonitrile (50:50) + 50 nM tolbutamide). The final concentrations of compounds in the donor, acceptor, and initial solution (T0) wells were analyzed using LC-MS/MS. The results were used to calculate an effective permeability (Pe) value. The PAMPA assay was performed in triplicate (n = 3).
row,Compound,"Papp at 5 h, 10 μM"
1,"CC(C)(C)Cn1c(NC(=O)c2ccn[nH]2)nc2ccc(C#N)cc21 [Compound 34, O=C(Nc1nc(ccc(C#N)c2)c2n1CC(C)(C)C)c3ccn[nH]3]",11.1 ×10⁻⁶ cm/s
2,"CCCn1c(NC(=O)Cc2ccc(F)cc2)nc2ccccc21 [Compound 2, CCCn1c(nc2c1cccc2)NC(Cc3ccc(cc3)F)=O]",6.63 ×10⁻⁶ cm/s

# Same assay, conditions: S1 Data
row,Compound,PAMPA Pe
1,CCCn1c(NC(=O)Cc2ccc(F)cc2)nc(c13)cc(C(=O)O)cc3 [Compound 10],6.27 10-6 cm/s

# System: not listed separately
# Assay: HEPG2 cytotoxicity
# Type: cell-based
# Details: human, HepG2 cells; S1 Data
# Text: Supplement pntd.0009196.s001.xlsx, sheet "Complete Dataset" | column: HEPG2 CC50 (uM)
row,Compound,CC50
1,"CC(C)(C)Cn1c(NC(=O)c2ccn[nH]2)nc2ccc(C#N)cc21 [Compound 34, O=C(Nc1nc(ccc(C#N)c2)c2n1CC(C)(C)C)c3ccn[nH]3]",16 µM

# System: PMM (Primary Mouse Macrophages)
# Assay: Cytotoxicity on primary peritoneal mouse macrophages
# Type: cell-based
# Details: Mus musculus, Macrophage, read-out: PMM IC50
# Experimental: as §1, §2
row,Compound,IC50
1,"CC(C)(C)Cn1c(NC(=O)c2ccn[nH]2)nc2ccc(C#N)cc21 [Compound 34, O=C(Nc1nc(ccc(C#N)c2)c2n1CC(C)(C)C)c3ccn[nH]3]",50.8 µM
2,"CCCn1c(NC(=O)Cc2ccc(F)cc2)nc2ccccc21 [Compound 2, CCCn1c(nc2c1cccc2)NC(Cc3ccc(cc3)F)=O]",32 µM

# Same assay, conditions: S1 Data; read-out: PMM IC50
row,Compound,IC50
1,CCCn1c(NC(=O)Cc2ccc(F)cc2)nc(c13)cc(C(=O)O)cc3 [Compound 10],> 64 µM

# System: not listed separately
# Assay: Mouse liver microsomal stability
# Type: in vitro ADME
# Details: CD1, mouse, liver microsomes, pH 7.4, S1 Data; read-out: MLM CLint
# Experimental: The metabolic stability of the compounds was evaluated in human (pool of 200 donors, XenoTech) and mouse liver microsomes (CD1 mouse, GIBCO). Test compounds were prepared at a concentration of 0.5 μM and incubated with 0.25 mg/mL liver microsomes at pH 7.4 and 37°C. The reaction was started by addition of NADPH at […]. Samples were taken at 0, 5, 10, 15, 20 and 30 minutes. The reaction was stopped by the addition of acetonitrile:methanol (1:1) containing an internal standard (tolbutamide at 50 nM). Compounds were quantified by liquid chromatography triple quadrupole mass spectrometry (LC-MS/MS). Peak area ratios (analyte/internal standard) were converted to % remaining using the area ratio at time 0 as 100%. Half-life (t1/2 = ln(2)/k) in minutes and intrinsic clearance (Clint = k x 1000/(0.25)) in μL/min/mg were calculated using a non-linear regression from % remaining versus incubation time. From this plot, the slope (k) was determined. The analysis conditions were: analytical column (Gemini C18, […], Phenomenex), electrospray ionization source (ESI) in positive and negative mode, mobile phase A (water + 0.1% formic acid) and B (acetonitrile + 0.1% formic acid), flow rate of 0.7 mL/min.
row,Compound,microsomal CLint at 0.5 μM
1,"CC(C)(C)Cn1c(NC(=O)c2ccn[nH]2)nc2ccc(C#N)cc21 [Compound 34, O=C(Nc1nc(ccc(C#N)c2)c2n1CC(C)(C)C)c3ccn[nH]3]",47 µL/min/mg
2,"CCCn1c(NC(=O)Cc2ccc(F)cc2)nc2ccccc21 [Compound 2, CCCn1c(nc2c1cccc2)NC(Cc3ccc(cc3)F)=O]",2760 µL/min/mg

# From PMC7932521, “2-aminobenzimidazoles for leishmaniasis: From initial hit discovery to in vivo profiling” (PLoS Neglected Tropical Diseases, 2021)
